Assays:
Prep1/p160 complex = target: T1, Prep1/p160 complex (Rattus norvegicus, UniProt O35821); test: Prep1-p160 co-immunoprecipitation in L6 cells; format: cell-based
T1 construct: endogenous in cells; host or cells: L6 rat skeletal muscle cells
T1 sequence (O35821 1-1344): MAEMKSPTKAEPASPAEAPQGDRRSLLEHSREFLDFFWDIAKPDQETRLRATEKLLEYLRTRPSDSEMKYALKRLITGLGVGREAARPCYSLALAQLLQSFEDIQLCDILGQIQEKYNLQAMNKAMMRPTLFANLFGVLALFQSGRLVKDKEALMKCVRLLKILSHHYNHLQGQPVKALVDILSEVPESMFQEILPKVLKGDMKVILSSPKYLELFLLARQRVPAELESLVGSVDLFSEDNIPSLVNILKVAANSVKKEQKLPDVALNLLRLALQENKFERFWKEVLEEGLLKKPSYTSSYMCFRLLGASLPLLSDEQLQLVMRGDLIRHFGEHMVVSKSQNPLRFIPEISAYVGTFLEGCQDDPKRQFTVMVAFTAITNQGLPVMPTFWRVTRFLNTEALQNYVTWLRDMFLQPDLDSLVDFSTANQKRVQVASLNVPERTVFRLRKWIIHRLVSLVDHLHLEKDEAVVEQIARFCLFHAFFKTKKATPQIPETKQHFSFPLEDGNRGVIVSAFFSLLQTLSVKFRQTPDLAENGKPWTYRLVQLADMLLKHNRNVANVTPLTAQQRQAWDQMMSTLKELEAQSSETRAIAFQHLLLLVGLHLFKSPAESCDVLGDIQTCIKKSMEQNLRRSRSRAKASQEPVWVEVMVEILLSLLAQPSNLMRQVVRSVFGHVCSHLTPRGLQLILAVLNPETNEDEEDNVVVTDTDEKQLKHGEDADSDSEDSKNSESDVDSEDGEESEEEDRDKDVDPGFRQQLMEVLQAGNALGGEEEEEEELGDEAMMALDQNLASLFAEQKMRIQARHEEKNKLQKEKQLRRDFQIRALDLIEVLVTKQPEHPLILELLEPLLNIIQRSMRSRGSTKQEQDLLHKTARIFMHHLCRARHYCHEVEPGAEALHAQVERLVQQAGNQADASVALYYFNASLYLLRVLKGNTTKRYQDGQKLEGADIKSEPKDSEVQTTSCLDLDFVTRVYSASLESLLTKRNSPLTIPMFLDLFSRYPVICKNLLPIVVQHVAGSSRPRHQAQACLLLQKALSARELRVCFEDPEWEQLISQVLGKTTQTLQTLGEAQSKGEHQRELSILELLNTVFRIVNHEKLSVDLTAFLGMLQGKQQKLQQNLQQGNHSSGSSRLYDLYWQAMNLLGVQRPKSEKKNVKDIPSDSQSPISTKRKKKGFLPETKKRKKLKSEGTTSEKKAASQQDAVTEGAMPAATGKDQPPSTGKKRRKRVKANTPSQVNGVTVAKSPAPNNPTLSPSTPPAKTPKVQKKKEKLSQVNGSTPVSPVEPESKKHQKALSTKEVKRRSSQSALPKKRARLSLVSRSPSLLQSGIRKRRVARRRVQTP
Protocol: Figure 2 Effect of ceramides on Prep1 and p160 mRNA expression and of Prep1-p160 coprecipitation L6 cells were treated with C2cer (10μM) for 18h and Prep1 (A) or p160 (B) mRNA levels were analyzed by real-time RT-PCR analysis. Data were normalized by the amount of GAPDH mRNA, used as internal control. Bars represent the mean ± SD of three independent experiments, each performed in triplicate. (C) L6 cells were treated with cycloheximide (CHX) at 40μg/mL concentration for 18h and the lysates were analyzed by Western blot with anti-p160 and beta-actin. The autoradiograph shown is representative of three different experiments and subjected to densitometric analysis. […]
Figure 3 Design and in vitro effects of Prep1(54-72) peptide on Prep1/p160 association (A) Binding curves of Prep1(59-72) and Prep1(54-72) peptides to p160_20-160 by ELISA-like assays. […] (C) L6 cells were incubated with increasing concentrations of the fluorescein-conjugated peptide (FITC-Prep1(54-72)) and peptide uptake was detected by FACS analysis of fluorescein-labeled cells. […] Protein lysates were immunoprecipitated with Prep1 antibodies and analyzed by Western blot using antibodies for p160 or for Prep1. […] The blots were detected by ECL and autoradiography. […]
Total cell lysates were obtained and separated by SDS-PAGE. […] The protein concentrations in the cell lysates were measured using a Bio-Rad DC (detergent compatible) assay. […]

Akt phosphorylation = test: Akt phosphorylation, Western blot; format: cell-based, rat; settings: L6 cells with C2cer 10μM or Prep1 transfection, insulin 100nM
Protocol: Figure 5 Effect of Prep1(54-72) peptide on Akt phosphorylation and PGC-1α and GLUT4 protein levels (A-B) L6 control and Prep1 overexpressing cells were stimulated with Insulin (100nM) and/or C2cer (10μM) and incubated with Prep1(54-72). Protein lysates were analyzed by Western blot using antibodies for pAkt, Akt and for the beta-actin, as a loading control. (C) PGC-1α and GLUT4 protein levels were measured by using specific antibodies for these proteins and beta-actin antibody was used as loading control. Blots were detected by ECL and autoradiography. The autoradiographs are representative of four independent experiments. Asterisks denote statistically significant differences (*p<0.05; **p<0.01; ***p<0.001).
Total cell lysates were obtained and separated by SDS-PAGE. Briefly, cells were solubilized with lysis buffer containing 50mM HEPES, 150mM NaCl, 10mM EDTA, 10mM Na4P2O7, 2mM sodium orthovanadate, 50mM NaF, 1mM phenylmethylsulfonyl fluoride, 10μg/ml aprotinin, 10μg/ml leupeptin, pH 7.4, and 1% (v/v) Triton X-100. Lysates were clarified by centrifugation at 12,000g for 20 minutes at 4°C. The protein concentrations in the cell lysates were measured using a Bio-Rad DC (detergent compatible) assay. Immunoprecipitation and Western blot analysis have been performed as previously described.

Row | induction of Prep1-p160 association (Prep1/p160 complex; C2cer) [%] | effect on ceramide-stimulated Prep1-p160 co-precipitation (Prep1/p160 complex; C2cer 10μM 18h, incubated with Prep1(54-72)) | Compound | effect on insulin stimulated Akt phosphorylation (Akt phosphorylation)
1 | 80 | – | CCCCCCCCCCCCC/C=C/[C@@H](O)[C@H](CO)NC(C)=O [C2cer, D-erythro-Sphingosine, N-Acetyl-, reference compound] | –
2 | – | almost completely reverted | Ac-KQAIYRHPLFPLLALLFEK-NH2 [Prep1(54-72)] | rescued insulin effect
